Entries after “also recorded” stand apart in the source; their conditions may differ.

What all share (assay type): cell-based, human
Assay [1] deals with PNT2-C2 normal prostate epithelial cell line. The assay is described as follows: Alamar Blue cell viability, PNT2-C2. As to conditions: 72 h exposure. From the text: (§1) Five different prostate cell lines, including normal cell line PNT2-C2 (Merck), benign prostatic hyperplasia cell line BPH1 (gift from Simon W. Hayward, Evanston, IL, USA), and cancer cell lines including PC-3 (derived from prostate cancer bone metastasis) (ATCC), LNCaP (derived from prostate cancer lymph node metastasis) (ATCC), and P4E6 (derived from localized prostate cancer) (derived in York and available from European Collection of Authenticated Cell Cultures ECACC), as well as two primary malignant cell lines, H796/19 and H798/19 (both Gleason 7 grade cancers) (obtained in York with ethical permission, REC ref 07/H1304/121) were used in the study. Culturing of commercially available cell lines and processing and culturing of primary cells were carried out as previously described. Primary cells were typically used at a passage <5 since they have finite growth and the intention is to maintain them as close to the original tumor as possible.
(§2) AlamarBlue quantitatively measures cell viability since actively metabolizing cells can reduce its active ingredient resazurin to a fluorescent molecule (resorufin) which can be subsequently analyzed on a plate reader. Cells were plated in 96 well plates at a density of 5000 cells/well and left to adhere overnight in 200 μL media. The following day cells were treated with 9 different concentrations of the test drugs in triplicate, ranging from 10^−5 M to 10^−13 M. After 72 h exposure 20 μL of AlamarBlue reagent (diluted 1:10 in the corresponding media for each cell line) was added to each well and incubated at 37 °C for 2 h. Fluorescence intensity was determined using a microplate reader (Polarstar Optima, BMG Labtech) at excitation/emission values 73 of 544/590 nm. EC50 values were calculated using the software GraphPad Prism Version 6 (San Diego, CA, USA).

A further assay has as its system LNCaP cell line. Nature of the assay: Alamar Blue cell viability, LNCaP. As to conditions: 72 h exposure.
Text: as §1, §2
On the technique in general: The colour change of resazurin is a common sign of viable cells or microbes.

The subject of assay [2] is PC3 cell line. The assay is described as follows: Alamar Blue cell viability, PC3. As to conditions: for EC50: 72 h exposure, Alamar Blue.
Text: as §1, §2

For assay [3], the system named is BPH1 benign prostatic hyperplasia cell line. Nature of the assay: Alamar Blue cell viability, BPH1.
Text: as §1, §2

In a further assay the test system is P4E6 cell line. The assay is described as follows: Alamar Blue cell viability, P4E6. As to conditions: for EC50: 72 h exposure, Alamar Blue.
Text: as §1, §2

Assay [4] deals with PC3 cell line. Nature of the assay: Colony-forming assay, PC3. The conditions noted are these: 72 h exposure at EC50, EC50×2, EC50×5. As to the method:
PNT2-C2, BPH1 and PC3 cell lines were plated in 12-well plates with a density of 4 × 10^4 cells/well and left to adhere overnight in 1.00 mL media. The following day cells were treated with 3 different concentrations of the test drugs, based on the EC50 values in cell viability (EC50, EC50×2, EC50×5). After 72 h of exposure, cells were counted and plated into 12 well plates in triplicate with a density of 100 cells/well. At day 8, cells were stained with crystal violet (1% (w/v) crystal violet, 10% (v/v) ethanol in PBS). Colonies consisting of >32 cells were counted (representative of 5 population doublings).

Assay [5] relates to ALDH1A1 gene expression in primary prostate epithelial cell cultures. The assay is described as follows: qPCR ALDH1A1 gene expression after atRA treatment. As to conditions: atRA 100 nM, 72 hours; 1xBPH, 1xBPH-PIN, 2x PCa primary cultures; no statistical test. On the procedure: (§3) RNA extraction was carried out using the RNeasy Mini Kit (Qiagen, Hilden, Germany). The concentration and quality of the eluted RNA were determined using a NanodropTM2000 (Thermo Fisher Scientific, Waltham, MA, USA) spectrophotometer and measuring the 260/280 ratio. Total RNA of 50–2000 ng was reverse transcribed into single-stranded cDNA using the High Capacity cDNA Reverse Transcription Kit (Thermo Fisher Scientific, Waltham, MA, USA). Once the reaction finished, samples were purified using the QIAquick PCR Purification Kit (Qiagen). The concentration and quality of the cDNA was measured by using the NanodropTM2000 spectrophotometer. qPCR was carried out in 25 μL total PCR reaction using the TaqMan Universal PCR Master Mix (Applied Biosystems, Thermo Fisher Scientific, Waltham, MA, USA). The PCR reaction consisted of 12.5 μL of 2× master mix, 1.25 μL of 20× TaqMan Gene Expression Assay Mix (Supplementary Table S1), and 11.25 μL cDNA diluted in dH2O. A 96-well MicroAmp Optical plate (Applied Biosystems) was used and all reactions were run in triplicates. Primers used were obtained from TaqMan Gene Expression Assays (Thermo Fisher Scientific, Waltham, MA, USA). […] The gene expression level relative to internal control RPLP0 was calculated using the formula 2^−∆CT and the fold change in gene expression was worked out using the 2^−∆∆CT method. […]
Background: Quantitative PCR measures a nucleic acid by following its amplification.

For assay [6], the system named is ALDH1A3 gene expression in primary prostate epithelial cell cultures. The assay is described as follows: qPCR ALDH1A3 gene expression after atRA treatment. As to conditions: atRA 100 nM, 72 hours; 1xBPH, 1xBPH-PIN, 2x PCa primary cultures; no statistical test. As to the method: as §3

Usually EC50 stands for the midpoint of the concentration-response curve. In the case of `c1ccc(-c2ccc3nc(-c4ccccc4)cn3c2)cc1` [Compound 3a], the EC50 in assay [1] is 423 nM; with LNCaP cell line it was 315 nM; in the assay with PC3 cell line [2], 239 nM; in assay [3] (72 h exposure), 113 nM; in the assay with P4E6 cell line, 60.7 nM.

Consider `Fc1ccc(-c2ccc3nc(-c4ccccc4)cn3c2)cc1` [Compound 3b, 6-(4-fluorophenyl)-2-phenylimidazo [1,2-a]pyridine], for which, in the assay with PC3 cell line [4], the “colony-forming efficiency PC3” value is listed as “inhibitory efficacy against PC3 colony-forming efficiency”. For the same compound, the half-maximal effective concentration (EC50) in assay [1] (Homo sapiens, Epithelial cell) came to 217 nM; in the assay on LNCaP cell line (Homo sapiens, LNCaP), 240 nM; in the assay with PC3 cell line [2] (Homo sapiens, PC-3), 70.9 nM; in assay [3] (Homo sapiens, BPH-1, 72 h exposure) it was 41.5 nM; in the assay with P4E6 cell line (Homo sapiens) it was 4.04 nM. The “antiproliferative activity against PC3” value in the assay on PC3 cell line [2] (result in words) is “antiproliferative activity in the nanomolar range; also recorded: nanomolar efficacy”. The “antiproliferative activity against P4E6” value in the assay on P4E6 cell line (result in words) was “antiproliferative activity in the nanomolar range; also recorded: nanomolar efficacy”.

Take `Clc1ccc(-c2ccc3nc(-c4ccccc4)cn3c2)cc1` [Compound 3c]: the concentration giving a half-maximal response (EC50) in assay [1] is 325 nM; with LNCaP cell line, 323 nM; with PC3 cell line [2], 322 nM; in assay [3] (72 h exposure), 416 nM; in the assay on P4E6 cell line, 33.4 nM.

With `N#Cc1cccc(-c2ccc3nc(-c4ccccc4)cn3c2)c1` [Compound 3d], the “selectivity of PC3 colony forming inhibition versus PNT2-C2 or BPH-1” value in the assay on PC3 cell line [4] is on record as “selectively inhibited PC3 colony forming more strongly than PNT2-C2 or BPH-1; also recorded: selective inhibition of PC3 colony formation”. For the same compound, the EC50 in assay [1] stood at 1720 nM; in the assay on LNCaP cell line, 7180 nM; in assay [3] (72 h exposure), 351 nM; with P4E6 cell line, 440 nM.

Regarding `CC1=C(/C=C/C(C)=C/C=C/C(C)=C/C(=O)O)C(C)(C)CCC1` [atRA], the “gene expression for ALDH1A1” value in assay [5] was “no apparent effect”. Besides, the “gene expression for ALDH1A3” value in assay [6] was “increase”.

The values are drawn from PMC7761903, “Aldehyde Dehydrogenases and Prostate Cancer: Shedding Light on Isoform Distribution to Reveal Druggable Target” (Biomedicines, 2020).
